From article PMC10914731, “Homo-BacPROTAC-induced degradation of ClpC1 as a strategy against drug-resistant mycobacteria” (Nature Communications, 2024)
≈ marks a conversion by molar mass, not a printed value. Where “and” joins values, the source holds several entries; their conditions need not be identical. Identical values can stand only once. Like-named read-outs stand apart in the source and are kept apart here. *1 amine or outer side, *2 acyl side, *3 side chain or, on linkers, in order; H or OH if unused. Where a SMILES comes first, the peptide text is derived from it. [ ]: non-standard residue; d: D form. X5 = C=CCn1cc(C[C@@H](C(=O)[*:2])N(C)[*:1])c2ccccc21; X7 = C=CCn1cc(C[C@H](N[*:1])C(=O)[*:2])c2ccccc21; NMeLeu(5-OH,4R) = CN[C@@H](C[C@@H](C)CO)C(=O)O; Phe(βR-OMe) = CO[C@H](c1ccccc1)[C@H](N)C(=O)O; NMeL = CN[C@@H](CC(C)C)C(=O)O

Tests used:
[1] = system: Mycobacterium intracellulare; test: microbe, parasite or virus in culture; assay type: cell-based
Mycobacterium avium = test: microbe, parasite or virus in culture; assay type: cell-based
Mycobacterium abscessus = test: microbe, parasite or virus in culture; assay type: cell-based
Mycobacterium fortuitum = test: microbe, parasite or virus in culture; assay type: cell-based
[2] = Hepatocyte stability, mice; assay type: in vitro ADME; conditions: for Hepatocyte Mice: clearance in hepatocytes
Method: (§1) Cryopreserved hepatocytes are incubated in an appropriate buffer system containing 50% species serum. Following an acclimation period (15–30 min) in an incubator (37 °C, 5−10% CO2, 85–95% humidity) the test compound is added to the hepatocyte suspension (pH 7.4, typical cell density of about 1 million cells/mL; final concentration of test compound is 1 µM, final DMSO concentration <0.05% v/v). The cells are incubated for up to 6 h and samples are taken at 6 different time points. Samples are then quenched with acetonitrile and pelleted by centrifugation. The remaining amount of parent compound in the supernatants is then analysed by HPLC-MS/MS. Clearance is calculated from compound half-lives using the well-stirred liver model and is converted to clearance stated as % of the liver blood flow (% Qh).

[3] = assay type: in vitro ADME, Rat; conditions: for Microsomal Stability Rat: clearance in microsomes
Method: (§2) The kinetics of compound degradation in liver microsomes is assessed in an assay with 1 µmol/l of compound and 0.5 mg/ml liver microsomes in a medium of 100 mM Tris-HCl pH 7.5, 6.5 mM MgCl2 and 1 mM NADPH at 37 °C. The reaction is stopped at multiple time points by adding acetonitrile. After centrifugation, the compound concentration is measured in the supernatants by high-performance liquid chromatography (HPLC) tandem mass spectrometry (MS/MS). The results are fitted to a first-order decay and the half-lives are converted to clearance (stated as % of the liver blood flow (%Qh)) using the well-stirred liver model.

[4] = Microsomal stability, human; assay type: in vitro ADME; conditions: for Microsomal Stability Human: clearance in microsomes
Method: as §2

[5] = target: ClpC1 NTD protein (M. tuberculosis) (Mycobacterium tuberculosis, UniProt P9WPC9); test: biochemical; assay type: binding; conditions: for koff: read-out: koff ClpC1-NTD
[6] = assay type: in vitro ADME, Rat; conditions: for Hepatocyte Rat: clearance in hepatocytes
Method: as §1

Caco-2 monolayers = test: in vitro; conditions: for CACO permeability PEAB: apical to basolateral; for CACO permeability PEBA: basolateral to apical; for Caco-2 Int. Perm: mean value of P(A−B) and P(B−A)
From the text: (§3) Supplementary Table 1. Structure-Activity Relationships part 1 (SPR, Caco-2) […]
(§4) SPR. Mean values ± standard deviation. Footnotes indicate the number of measurements performed for the respective compound: a) n = […]
(§5) [5] Permeability across Caco-2 monolayers in P(A−B): apical to basolateral and P(B−A): basolateral to apical direction (values reported in 10-
(§6) 6 cm s-1); efflux ratio = P(B−A)/P(A−B); Int. perm: mean value of P(A−B) and P(B−A). […] Influence of Trp-Nα methylation on P(A-B) and efflux
(§7) ratio. Bold: positive influence.

in vitro = conditions: human; for efflux ratio: Caco-2; for Papp A→B: Caco-2, CACO permeability PEAB, apical to basolateral; for Papp B→A: Caco-2, CACO permeability PEBA, basolateral to apical
From the text: as §3, §4, §5, §6, §7

[7] = assay type: in vitro ADME, Human; conditions: for Hepatocyte Human: clearance in hepatocytes
Method: as §1

[8] = assay type: in vitro ADME, Mice
Method: as §2

[9] = Experiment 2, three replicate columns
[10] = SPR (Supplementary Table 1), read-out: KD ClpC1-NTD Mean ± SD
[11] = SPR, single independent measurements
[12] = SPR, single independent measurements, read-out: KD ClpC1-NTD

ClpC1 NTD protein (M. tuberculosis), sequence (P9WPC9 1-156, looked up, natural form): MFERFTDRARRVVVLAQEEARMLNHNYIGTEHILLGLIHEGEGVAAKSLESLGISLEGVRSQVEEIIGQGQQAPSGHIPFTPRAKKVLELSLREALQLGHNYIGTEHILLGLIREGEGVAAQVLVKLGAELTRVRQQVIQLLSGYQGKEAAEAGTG

## CC[C@H]1OC(=O)[C@H](C)[C@@H](O[C@H]2C[C@@](C)(OC)[C@@H](O)[C@H](C)O2)[C@H](C)[C@@H](O[C@@H]2O[C@H](C)C[C@H](N(C)C)[C@H]2O)[C@](C)(OC)C[C@@H](C)C(=O)[C@H](C)[C@@H](O)[C@]1(C)O [Clarithromycin, reference compound]
[1]; [9]
  MIC (µg/ml) Mycobacterium intracellulare: 0.13 µg/mL (≈ 0.174 µM)
[1]; Experiment 2, three replicate columns, read-out: MIC (µM) Mycobacterium intracellulare
  MIC: 0.17 µM
[1]; Mycobacterium intracellulare, Experiment 2, three replicate columns, read-out: MIC (µM) Mycobacterium intracellulare
  MIC: 0.17 µM
[1]; Mycobacterium intracellulare, Experiment 2, three replicate columns, read-out: MIC (µg/ml) Mycobacterium intracellulare
  MIC: 0.13 µg/mL
[1]; Mycobacterium intracellulare, mean ± SD, read-out: MIC Mycobacterium intracellulare
  MIC: 0.2 µM
Mycobacterium avium; [9]
  MIC (µg/ml) Mycobacterium avium: 0.25 µg/mL (≈ 0.334 µM)
Mycobacterium avium; Experiment 2, three replicate columns, read-out: MIC (µM) Mycobacterium avium
  MIC: 0.33 µM
Mycobacterium avium; Mycobacterium avium, Experiment 2, three replicate columns, read-out: MIC (µM) Mycobacterium avium
  MIC: 0.33 µM
Mycobacterium avium; Mycobacterium avium, Experiment 2, three replicate columns, read-out: MIC (µg/ml) Mycobacterium avium
  MIC: 0.25 µg/mL
Mycobacterium avium; Mycobacterium avium, mean ± SD, read-out: MIC Mycobacterium avium
  MIC: 0.3 µM
Mycobacterium abscessus; [9]
  MIC (µg/ml) Mycobacterium abscessus: 0.50 µg/mL (≈ 0.668 µM)
Mycobacterium abscessus; Experiment 2, three replicate columns, read-out: MIC (µM) Mycobacterium abscessus
  MIC: 0.67 µM
Mycobacterium abscessus; Mycobacteroides abscessus, Experiment 2, three replicate columns, read-out: MIC (µM) Mycobacterium abscessus
  MIC: 0.67 µM
Mycobacterium abscessus; Mycobacteroides abscessus, Experiment 2, three replicate columns, read-out: MIC (µg/ml) Mycobacterium abscessus
  MIC: 0.5 µg/mL
Mycobacterium abscessus; Mycobacteroides abscessus, mean ± SD, read-out: MIC Mycobacterium abscessus
  MIC: 0.7 µM
Mycobacterium fortuitum; [9]
  MIC (µg/ml) Mycobacterium fortuitum: 0.50 µg/mL (≈ 0.668 µM)
Mycobacterium fortuitum; Experiment 2, three replicate columns, read-out: MIC (µM) Mycobacterium fortuitum
  MIC: 0.67 µM
Mycobacterium fortuitum; Mycolicibacterium fortuitum, Experiment 2, three replicate columns, read-out: MIC (µM) Mycobacterium fortuitum
  MIC: 0.67 µM
Mycobacterium fortuitum; Mycolicibacterium fortuitum, Experiment 2, three replicate columns, read-out: MIC (µg/ml) Mycobacterium fortuitum
  MIC: 0.5 µg/mL
Mycobacterium fortuitum; Mycolicibacterium fortuitum, mean ± SD, read-out: MIC Mycobacterium fortuitum
  MIC: 0.7 µM

## C=CCn1cc(C[C@@H]2NC(=O)[C@H](C(C)C)NC(=O)[C@H](CC(C)C)N(C)C(=O)[C@H](C(C)C)NC(=O)[C@H]([C@H](OC)c3ccccc3)NC(=O)[C@H](C)NC(=O)[C@H](C[C@@H](C)CO)N(C)C2=O)c2ccccc21 [Compound 13] (cyclo(A[Phe(βR-OMe)]V[NMeL]V[X7][NMeLeu(5-OH,4R)]))
[2]
  Hepatocyte Stability Mouse QH: 58.852%
  Hepatocyte Mice: 59 %Qh
[3]
  Microsomal Stability Rat QH: >87.900%
  Microsomal Stability Rat: > 88 %Qh
[4]
  Microsomal Stability Human QH: >88.400%
  Microsomal Stability Human: > 88 %Qh
[5]; [10]
  Kd: 3.6 ± 0.2 nM
[5]; [11]
  koff ClpC1-NTD: 0.1 s⁻¹
  koff: 0.07 s⁻¹
[5]; [12]
  Kd: 3.66 nM and 3.44 nM
[6]
  Hepatocyte Stability Rat QH: 65.282%
  Hepatocyte Rat: 65 %Qh
Caco-2 monolayers
  CACO permeability PEAB: 2.4 ×10⁻⁶ cm/s
  CACO permeability PEBA: 18.999999999999998 ×10⁻⁶ cm/s
  Caco-2 Int. Perm: 10.7 10-6 cm s-1
In vitro
  efflux ratio: 7.9
  Papp A→B: 4.5 ×10⁻⁶ cm/s
  Papp B→A: 33 ×10⁻⁶ cm/s
[7]
  Hepatocyte Stability Human QH: 18.968%
  Hepatocyte Human: 19 %Qh
[8]; Mouse
  Microsomal Stability Mouse QH: >88.400%
[8]; clearance in microsomes
  Microsomal Stability Mice: > 88 %Qh

## C=CCn1cc(C[C@H]2C(=O)N(C)[C@@H](C[C@@H](C)CO)C(=O)N[C@@H](C)C(=O)N[C@@H]([C@H](OC)c3ccccc3)C(=O)N[C@@H](C(C)C)C(=O)N(C)[C@@H](CC(C)C)C(=O)N[C@@H](C(C)C)C(=O)N2C)c2ccccc21 [SI-60] (cyclo(A[Phe(βR-OMe)]V[NMeL]V[X5][NMeLeu(5-OH,4R)]))
[2]
  Hepatocyte Stability Mouse QH: 61.367%
  Hepatocyte Mice: 61 %Qh
[3]
  Microsomal Stability Rat QH: >87.900%
  Microsomal Stability Rat: > 88 %Qh
[4]
  Microsomal Stability Human QH: >88.400%
  Microsomal Stability Human: > 88 %Qh
[5]; [10]
  Kd: 8 ± 3 nM
[5]; [11]
  koff ClpC1-NTD: 0.04 s⁻¹
  koff: 0.03 s⁻¹
[5]; [12]
  Kd: 9.87 nM and 5.93 nM
[6]
  Hepatocyte Stability Rat QH: 57.215%
  Hepatocyte Rat: 57 %Qh
Caco-2 monolayers
  CACO permeability PEAB: 35 ×10⁻⁶ cm/s
  CACO permeability PEBA: 88 ×10⁻⁶ cm/s
  Caco-2 Int. Perm: 61.5 10-6 cm s-1
Caco-2 monolayers; influence of Trp-Nα methylation on P(A-B), matched pair, listed under the methylated partner
  Permeability Correlation P (A-B): 14.6
Caco-2 monolayers; influence of Trp-Nα methylation on efflux ratio, matched pair, listed under the methylated partner
  Permeability Correlation Ratio: 3.2
In vitro
  efflux ratio: 2.5
  Papp A→B: 46 ×10⁻⁶ cm/s
  Papp B→A: 49 ×10⁻⁶ cm/s
[7]
  Hepatocyte Stability Human QH: 50.176%
  Hepatocyte Human: 50 %Qh
